In US11186572B2, “Bacterial glutaminyl cyclases and inhibitors thereof for use in the treatment of periodontitis” (Fraunhofer-Gesellschaft zur Forderung der Angewandten …, priority 2016, dated 2021):
Like-named read-outs stand apart in the source and are kept apart here.

Target: T1, PgQC (Porphyromonas gingivalis, UniProt Q7MT37)
T1 construct: Ki; RA (average residual QC activity of PgQC); other: c = 1 μM; other: c = 1.5 μM; other: c = 10 μM; other: c = 100 μM; other: c = 12 μM; RA; fused on or other part: N-terminal His tag from pET28a(+), cleaved off by thrombin before the enzymatic characterisation
Test: biochemical
Design: species or system P. gingivalis
Details: for Ki: inhibition of PgQC, H-Gln-AMC, 50 mM Tris-HCl, 50 mM NaCl pH 8.0, 30° C.
Protocol: The assay consists of varying concentration of the fluorogenic substrate and 0.5 U pyroglutaminyl aminopeptidase in 50 mM Tris-HCl, 50 mM NaCl at pH 8.0. After 10 minute incubation time at 30° C. reaction was initiated by addition of bacQC to a final volume of 125 μl reaction mixture. […] All determinations were carried out in 96 well microtiter plates (Fisher Scientific) at 30° C. using the FluoStar Optima (BMG Labtech).
For inhibitor testing, the sample composition was the same as described above, except for the addition of the putative inhibitory compound. […] (∘) represents reaction without inhibitor. Determinations were carried out in 50 mM Tris-HCl, 50 mM NaCl pH 8.0 and 1% (v/v) DMSO at 30° C.
RA refers to the average residual QC activity of PgQC measured in the presence of a concentration c of the respective compound. Ki refers to the average Ki values measured as described above, and Std(Ki) refers to the standard deviation of Ki.

[1] = read-out: RA (average residual QC activity of PgQC)

For COC(=O)/C=C/CN1CCc2[nH]cnc2C1 [MWT-S-00138, Methyl (E)-4-(3,4,6,7-tetrahydroimidazo[4,5-c]pyridin-5-yl)but-2-enoate], the Ki (Ki (average)) was 3000 nM and the remaining activity at 20 µM [1] was 21%.
Compound c1ccc(CN2CCc3[nH]cnc3C2)cc1 [MWT-S-00139, 5-Benzyl-3,4,6,7-tetrahydroimidazo[4,5-c]pyridine] has a Ki (read-out: Ki (average)) of 909 nM and a remaining activity at 8 µM [1] of 18%.
c1ccc(CCN2CCc3[nH]cnc3C2)cc1 [MWT-S-00145, 5-(2-Phenylethyl)-3,4,6,7-tetrahydroimidazo[4,5-c]pyridine] showed a Ki (read-out: Ki (average)) of 6470 nM and a remaining activity at 40 µM [1] of 21%.
In the case of O=C(/C=C/c1ccccc1)N1CCc2[nH]cnc2C1 [MWT-S-00146, (E)-3-Phenyl-1-(3,4,6,7-tetrahydroimidazo[4,5-c]pyridin-5-yl)prop-2-en-1-one], the Ki (read-out: Ki (average)) is reported as 1580 nM and the remaining activity at 15 µM [1] is reported as 18%.
Compound O=C(CCc1ccccc1)N1CCc2[nH]cnc2C1 [MWT-S-00147, 3-Phenyl-1-(3,4,6,7-tetrahydroimidazo[4,5-c]pyridin-5-yl)propan-1-one] has a Ki (read-out: Ki (average)) of 1750 nM and a remaining activity at 12 µM [1] of 22%.
O=C(Cc1ccccc1)N1CCc2[nH]cnc2C1 [MWT-S-00148, 2-Phenyl-1-(3,4,6,7-tetrahydroimidazo[4,5-c]pyridin-5-yl)ethanone] was tested, and the Ki (read-out: Ki (average)) was 1680 nM and the remaining activity at 8 µM [1] was 29%.
Work on O=C(c1ccccc1)N1CCc2[nH]cnc2C1 [MWT-S-00149, Phenyl(3,4,6,7-tetrahydroimidazo[4,5-c]pyridin-5-yl)methanone] yielded a Ki (read-out: Ki (average)) of 435 nM and a remaining activity at 4 µM [1] of 20%.
In the case of O=C(c1ccc(F)cc1)N1CCc2[nH]cnc2C1 [MWT-S-00156, (4-Fluorophenyl)-(3,4,6,7-tetrahydroimidazo[4,5-c]pyridin-5-yl)methanone], the Ki (read-out: Ki (average)) is reported as 879 nM and the remaining activity at 5 µM [1] is reported as 24%.
COc1ccc(C(=O)N2CCc3[nH]cnc3C2)cc1 [MWT-S-00157, (4-Methoxyphenyl)-(3,4,6,7-tetrahydroimidazo[4,5-c]pyridin-5-yl)methanone] gave a Ki (read-out: Ki (average)) of 833 nM and a remaining activity at 5 µM [1] of 24%.
COc1cccc(C(=O)N2CCc3[nH]cnc3C2)c1 [MWT-S-00158, (3-Methoxyphenyl)-(3,4,6,7-tetrahydroimidazo[4,5-c]pyridin-5-yl)methanone] showed a Ki (read-out: Ki (average)) of 335 nM and a remaining activity at 2 µM [1] of 21%.
Work on O=C(c1ccc(Cl)c(Cl)c1)N1CCc2[nH]cnc2C1 [MWT-S-00159, (3,4-Dichlorophenyl)-(3,4,6,7-tetrahydroimidazo[4,5-c]pyridin-5-yl)methanone] yielded a Ki (read-out: Ki (average)) of 257 nM and a remaining activity at 2 µM [1] of 18%.
With O=C(c1ccc(Cl)cc1)N1CCc2[nH]cnc2C1 [MWT-S-00160, (4-Chlorophenyl)-(3,4,6,7-tetrahydroimidazo[4,5-c]pyridin-5-yl)methanone] the Ki (read-out: Ki (average)) was 681 nM and the remaining activity at 5 µM [1] was 20%.
With c1ccc(CN2CCc3[nH]cnc3C23COC3)cc1 [MWT-S-00260, 5-Benzylspiro[6,7-dihydro-3H-imidazo[4,5-c]pyridine-4,3′-oxetane]] the Ki (read-out: Ki (average)) was 1760 nM and the remaining activity at 10 µM [1] was 22%.
Fc1cc(CN2CCc3[nH]cnc3C2c2ccccc2)cc(F)c1F (stereo not shown) [MWT-S-00261, 4-Phenyl-5-[(3,4,5-trifluorophenyl)methyl]-3,4,6,7-tetrahydroimidazo[4,5-c]pyridine] showed a remaining activity at 20 µM [1] of 93%.
c1ccc(C2NCCc3[nH]cnc32)cc1 (stereo not shown) [MWT-S-00264] gave a remaining activity at 100 µM [1] of 92%.
CC1c2nc[nH]c2CCN1Cc1ccccc1 (stereo not shown) [MWT-S-00265, 5-Benzyl-4-methyl-3,4,6,7-tetrahydroimidazo[4,5-c]pyridine] showed a Ki (read-out: Ki (average)) of 3080 nM and a remaining activity at 20 µM [1] of 21%.
Compound Fc1cc(CN2CCc3[nH]cnc3C23COC3)cc(F)c1F [MWT-S-00266, 5-[(3,4,5-Trifluorophenyl)methyl]spiro[6,7-dihydro-3H-imidazo[4,5-c]pyridine-4,3′-oxetane]] has a Ki (Ki (average)) of 556 nM and a remaining activity at 4 µM [1] of 19%.
For CC1c2nc[nH]c2CCN1Cc1cc(F)c(F)c(F)c1 (stereo not shown) [MWT-S-00267, 4-Methyl-5-[(3,4,5-trifluorophenyl)methyl]-3,4,6,7-tetrahydro-imidazo[4,5-c]pyridine], the Ki (Ki (average)) was 528 nM and the remaining activity at 4 µM [1] was 20%.
Work on c1ccc(CN2CCc3[nH]cnc3C2c2ccccc2)cc1 (stereo not shown) [MWT-S-00268, 5-Benzyl-4-phenyl-3,4,6,7-tetrahydroimidazo[4,5-c]pyridine] yielded a remaining activity at 16 µM [1] of 93%.
For CC1c2nc[nH]c2CCN1C(=O)c1ccccc1 (stereo not shown) [MWT-S-00327], the remaining activity at 100 µM [1] was 18%.
Compound c1nc2c([nH]1)CCN(Cc1ccc(OCCN3CCOCC3)cc1)C2 [MWT-S-00330, 4-[2-[4-(1,4,6,7-Tetrahydroimidazo[4,5-c]pyridin-5-ylmethyl)phenoxy]ethyl]morpholine] has a Ki (Ki (average)) of 940 nM and a remaining activity at 8 µM [1] of 22%.
With CCCCOc1ccc(CN2CCc3[nH]cnc3C2)cc1 [MWT-S-00331, 5-[(4-Butoxyphenyl)methyl]-1,4,6,7-tetrahydroimidazo[4,5-c]pyridine] the Ki (Ki (average)) was 254 nM and the remaining activity at 1.5 µM [1] was 26%.
For COc1cccc(CN2CCc3[nH]cnc3C2)c1 [MWT-S-00343, 5-[(3-Methoxyphenyl)methyl]-1,4,6,7-tetrahydroimidazo[4,5-c]pyridine], the remaining activity at 1 µM [1] was 65%.
Work on FC1(F)Oc2ccc(CN3CCc4[nH]cnc4C3)cc2O1 [MWT-S-00344, 5-[(2,2-Difluoro-1,3-benzodioxol-5-yl)methyl]-1,4,6,7-tetrahydro-imidazo[4,5-c]pyridine] yielded a remaining activity at 1 µM [1] of 56%.
c1ccc(COc2ccc(CN3CCc4[nH]cnc4C3)cc2)cc1 [MWT-S-00359, 5-[(4-Benzyloxyphenyl)methyl]-1,4,6,7-tetrahydroimidazo[4,5-c]pyridine] was tested, and the Ki (Ki (average)) was 192 nM and the remaining activity at 1 µM [1] was 31%.
Work on c1cc(CN2CCc3[nH]cnc3C2)cc(N2CCCC2)c1 [MWT-S-00361, 5-[(3-Pyrrolidin-1-ylphenyl)methyl]-1,4,6,7-tetrahydroimidazo[4,5-c]pyridine] yielded a remaining activity at 1 µM [1] of 80%.
With c1nc2c([nH]1)CCN(Cc1ccc3c(c1)OCCO3)C2 [MWT-S-00380, 5-(2,3-Dihydro-1,4-benzodioxin-6-ylmethyl)-1,4,6,7-tetrahydro-imidazo[4,5-c]pyridine] the Ki (Ki (average)) was 311 nM and the remaining activity at 1 µM [1] was 39%.
For Cc1ccc(CN2CCc3[nH]cnc3C2)cc1 [MWT-S-00420, 5-(p-Tolylmethyl)-1,4,6,7-tetrahydroimidazo[4,5-c]pyridine], the Ki (Ki (average)) was 806 nM and the remaining activity at 10 µM [1] was 16%.
Clc1ccc(CN2CCc3[nH]cnc3C2)cc1 [MWT-S-00421, 5-[(4-Chlorophenyl)methyl]-1,4,6,7-tetrahydroimidazo[4,5-c]pyridine] gave a Ki (Ki (average)) of 540 nM and a remaining activity at 10 µM [1] of 11%.
Clc1ccc(CN2CCc3[nH]cnc3C2)cc1Cl [MWT-S-00423, 5-[(3,4-Dichlorophenyl)methyl]-1,4,6,7-tetrahydroimidazo[4,5-c]pyridine] gave a Ki (Ki (average)) of 367 nM and a remaining activity at 10 µM [1] of 8%.
O=C(c1cccc(Cl)c1)N1CCc2[nH]cnc2C1 [MWT-S-00425, (3-Chlorophenyl)(1,4,6,7-tetrahydro-5H-imidazo[4,5-c]pyridin-5-yl)methanone] was tested, and the Ki (read-out: Ki (average)) was 174 nM and the remaining activity at 10 µM [1] was 5%.
COc1ccc(C(=O)N2CCc3[nH]cnc3C2)cc1OC [MWT-S-00426, (3,4-Dimethoxyphenyl)(1,4,6,7-tetrahydro-5H-imidazo[4,5-c]pyridin-5-yl)methanone] showed a Ki (read-out: Ki (average)) of 1460 nM and a remaining activity at 10 µM [1] of 26%.
O=C(c1ccc2c(c1)OCO2)N1CCc2[nH]cnc2C1 [MWT-S-00427, Benzo[d][1,3]dioxol-5-yl(1,4,6,7-tetrahydro-5H-imidazo[4,5-c]pyridin-5-yl)methanone] gave a Ki (read-out: Ki (average)) of 560 nM and a remaining activity at 10 µM [1] of 13%.
With O=C(c1ccc(-c2ccccc2)cc1)N1CCc2[nH]cnc2C1 [MWT-S-00428, [1,1′-Biphenyl]-4-yl(1,4,6,7-tetrahydro-5H-imidazo[4,5-c]pyridin-5-yl)methanone] the Ki (read-out: Ki (average)) was 1900 nM and the remaining activity at 1 µM [1] was 83%.
With COc1cc(OC)cc(C(=O)N2CCc3[nH]cnc3C2)c1 [MWT-S-00429, (3,5-Dimethoxyphenyl)(1,4,6,7-tetrahydro-5H-imidazo[4,5-c]pyridin-5-yl)methanone] the Ki (read-out: Ki (average)) was 928 nM and the remaining activity at 10 µM [1] was 16%.
Compound O=C(c1cccc(F)c1)N1CCc2[nH]cnc2C1 [MWT-S-00430, (3-Fluorophenyl)(1,4,6,7-tetrahydro-5H-imidazo[4,5-c]pyridin-5-yl)methanone] has a remaining activity at 1 µM [1] of 40%.
For CCCOc1cccc(C(=O)N2CCc3[nH]cnc3C2)c1 [MWT-S-00432, (3-Propoxyphenyl)(1,4,6,7-tetrahydro-5H-imidazo[4,5-c]pyridin-5-yl)methanone], the Ki (read-out: Ki (average)) was 780 nM and the remaining activity at 100 µM [1] was 2%.
O=C(c1cccc(-c2ccccc2)c1)N1CCc2[nH]cnc2C1 [MWT-S-00433, [1,1′-Biphenyl]-3-yl(1,4,6,7-tetrahydro-5H-imidazo[4,5-c]pyridin-5-yl)methanone] gave a Ki (read-out: Ki (average)) of 547 nM and a remaining activity at 1 µM [1] of 47%.
For O=C(c1ccc2c(c1)OCCO2)N1CCc2[nH]cnc2C1 [MWT-S-00434, (2,3-Dihydrobenzo[b][1,4]dioxin-6-yl)(1,4,6,7-tetrahydro-5H-imidazo-[4,5-c]pyridin-5-yl)methanone], the Ki (read-out: Ki (average)) was 1340 nM and the remaining activity at 100 µM [1] was 3%.
